Experimental data taken from patent US7604990B2, “Methods of regulating differentiation in stem cells” (ES Cell International Pte Ltd., priority 2002, dated 2009).

Tests used:
hES cells [1] = assay: GCTM-2/PCNA immunostaining cell count, dissociated hES cells without MEF and serum (Example 1); type: cell-based, human; details: 4 days, no MEF, no serum
Excerpt: (A) Quantification of the number of GCTM2+ cells. (B) Quantification of the number of PCNA+/GCTM2+ cells.
In some experiments, hES-3 cells plated onto 8-well chamber slides, with or without MEF, were fixed in ethanol or paraformaldehyde (for PDGFR) the day after plating. In others, hES-3 cells were mechanically dissociated, in order to obtain a monolayer culture and then plated onto 8-well chamber slides without MEF and were fixed in ethanol 4 days after the first treatment. Immunostaining was performed using the following antibodies: anti human PDGFR-α or PDGFR-β (R&D Systems Inc.), GCTM-2, and/or PCNA (Chemicon, Boronia, VIC, Australia), TRA-1-60, Oct-4. Nuclei were evidenced by Hoechst-33342. Slides were mounted and observed by fluorescent microscopy with a Leica microscope at ×10, ×20 and ×40. Specificity was verified by the absence of any staining in the negative controls. In some experiments, cells were counted to determine the ratio of GCTM-2 positive (GCTM2+), PCNA positive (PCNA+) and GCTM2+/PCNA+ cells within the global population.

hES cells [2] = assay: Double immunostaining GCTM-2/PCNA of dissociated hES cells (Example 4); type: cell-based, human; details: 4 days without serum; S1P 10 μM
Procedure: Double staining experiments were performed using antibodies for PCNA and GCTM-2.
For immunostaining, hES-3 cells were coated on chamber slides after mechanical dissociation, in order to obtain a monolayer culture. The day following the plating, cells were incubated with the different agents in a media depleted in serum. Media was changed the 2nd day and the cells were fixed 4 days after the first treatment.
Cells were washed in PBS, fixed with MeOH, and immunostaining was performed, using the specific stem cell marker antibody GCTM-2, and the specific cell proliferation marker PCNA. Cells were then washed and the nucleuses were stained with Hoechst-33342 (1 μg/ml). Slides were mounted and then observed by fluorescent microscopy. Cells were then counted in order to determine the ratio of proliferating stem cells within the overall population.

[3] = tested on: ERKs (Erk1 and Erk2) in hES cells; assay: ERK phosphorylation Western blot in hES cells (Example 5); type: cell-based, human
Procedure: Western blots experiments were performed using protein lysate from hES cells. (A) Cells were pre-treated or not with U0126 (30 μM, 1 hr) and incubated for 5 min in the absence (C, control) or presence of S1P (10 μM). (B) Cells were incubated for different time periods in the absence or presence of S1P (10 μM). (C) Cells were incubated for 5 min with various concentrations of S1P. The phosphorylation of Erk1 and Erk2 (P-Erk1 and P-Erk2) was assessed by immunoblotting with a polyclonal anti-active MAP kinase as described in Materials and Methods. After a stripping procedure, the same blots reprobed with a monoclonal anti-MAP kinase, allowed the detection of Erk1 and Erk2.
For immunoblot analysis, cells were transferred into 24 well plates (8 colonies per well) without MEFs, and 24 hr later, were grown in the absence of serum for 18 hrs.
In some experiments, cells were pre-treated for 1 hr with U0126 (30 μM) or for 18 hrs with PTX (100 μg/ml).
hES3 cells were lysed following removal of the supernatants by addition of a reducing loading buffer (2% SDS, 62.5 mM Tris pH 6.8, 0.1 M DTT, 0.01% bromophenol blue) containing 1 mM sodium orthovanadate. Samples were boiled for 10 min and centrifuged at 13000 g for 15 min, and protein lysates (approx. 80 μg) were separated by SDS-polyacrylamide gel electrophoresis (10% polyacrylamide, w/v). Proteins were transferred to nitrocellulose (Hybond-ECL, Amersham) and immunoblotting was carried out with rabbit polyclonal anti-active mitogen-activated protein (MAPK) antibodies raised against a dually phosphorylated MAPK peptide (Promega, Madison, Wis., USA). Peroxidase-coupled secondary antibody (Dako) was detected by exposure of autoradiographic films in the presence of a chemiluminescent detection reagent (ECL, Amersham). Stripping of antibodies was achieved by incubating the membrane during 30 min at 50° C. in a buffer containing 100 mM mercaptoethanol, 2% SDS, 62.5 mM Tris-HCl pH 6.7. The membrane was then reprobing with rabbit polyclonal anti-ERK1/2 antibodies (Promega), and then with peroxidase-coupled secondary antibodies (Dako).

hES cells [4] = assay: GCTM-2 quantification by alkaline phosphatase activity, hES cells on MEF, serum-free (Example 1); type: cell-based, human; details: 8 days serum-free on MEF; S1P 10 μM, PDGF 20 ng/ml; n=7
Procedure: (A) hES cells grown with MEF, before the depletion of serum from the medium. (B, C, D, E) hES cells grown without serum after 8 days, in the absence (B) or in the presence of S1P (10 μM) (C), PDGF (20 ng/ml) (D), S1P (10 μM) plus PDGF (20 ng/ml) (E). (F) hES cells grown without serum, in the presence or in the absence (control) of S1P (10 μM), PDGF (20 ng/ml), S1P (10 μM) plus PDGF (20 ng/ml). In A-E, data are representative of at least 3 independent experiments. In F, data expressed as percentages of alkaline phosphatase activity in absence of serum for eight days (% of control), are the means±SEM of at least 2 independent experiments, each run in triplicate.
hES-3 cells plated with MEF, were fixed in ethanol and immunostained with GCTM-2 and then with an alkaline phosphatase-coupled secondary antibody (Dako). The activity of alkaline phosphatase was detected by adding a solution of 4-nitrophenyl phosphate (Roche, Mannheim, Germany), followed by reading the optical density (OD) at 405 nm. In order to validate the technique as a relevant indicator of the proportion of GCTM-2 positive cells, standard curves were done with the teratocarcinoma cell line GCT27C4, known to express GCTM-2.

[5] = tested on: sphingosine kinase (SPK) in hES cells; assay: Sphingosine kinase activity in hES cells after PDGF; type: cell-based, human; details: PDGF 20 ng/ml
Procedure: hES-3 cells plated without MEF for 24 hr and depleted of serum for a further 18 hr were incubated in the presence of PDGF (20 ng/ml) for various time periods and were harvested and lysed by sonication (2 W for 30 s at 4° C.) in lysis buffer containing 50 mM Tris/HCl (pH 7.4), 10% glycerol, 0.05% Triton X-100, 150 mM NaCl, 1 mM dithiothreitol, 2 mM Na3VO4, 10 mM NaF, 1 mM EDTA and protease inhibitors (Complete™, Roche, Mannheim, Germany). SPK activity was determined using D-erythro-sphingosine and […] as substrates, as previously described^19. Protein concentrations in cell homogenates were determined with Coomassie Brilliant Blue reagent (Bio-Rad, Regent Park, NSW, Australia) using bovine serum albumin as standard.

SPK in MEF = assay: Sphingosine kinase activity in MEF after PDGF; type: cell-based, mouse; details: PDGF 20 ng/ml

Molecule	proliferating rate of hES cells (PCNA+) versus control (hES cells [1])	proliferating rate of hES cells (PCNA) versus control (hES cells [2])	concentration dependence of ERKs stimulation ([3]; 5 min, various concentrations of S1P)	duration of ERKs stimulation ([3]; S1P 10 μM)	phosphorylation of ERKs ([3]; hES cells, 5 min, S1P 10 μM)	more GCTM2+ than the control cells (alkaline phosphatase activity) (hES cells [4]) [%]	cells GCTM2+ (hES cells [1]; mechanically dissociated, S1P 10 μM, PDGF 10 ng/ml) [%]	duration of SPK activity enhancement [5]	SPK activity ([5]; 30 min, value printed in brackets after 'basal values', n=3) [nmol/min/mg]	SPK activity relative to basal values ([5]; after 30 min of incubation) [fold]	activation of SPK in MEF (SPK in MEF)
CCCCCCCCCCCCC/C=C/[C@@H](O)[C@@H](N)COP(=O)(O)O [S1P, Sphingosine-1-phosphate]	no statistically significant difference	no marked difference	concentration dependant manner	at least 60 min	stimulated the phosphorylation of ERKs	–	–	–	–	–	–
PDGF	no statistically significant difference	–	–	–	–	16.6±7.0	53.7±13.2	at least 60 min	75.3 ± 3.92	1.6	did not induce a significant statistical activation of SPK
